Results reported in US11918550B2, “Sensitization of cancer cells to differentiation therapy with mitochondrial uncoupler niclosamide ethanolamine” (The Board of Trustees of the Leland Stanford Junior …, priority 2020, dated 2024).

What was measured:
Assay type in all cases: cell-based
NB16 cells = test: Western blot of β-catenin and p53; conditions: NB16, 1 μM NEN 24 and 48 hrs
Protocol: (§1) Protein extraction and immunoblot. Cells were washed with ice-cold PBS buffer (Invitrogen, 20012050) and lysed with harvest buffer (10 mM Hepes pH 7.9, 50 mM NaCl, 500 mM sucrose, 0.1 mM EDTA and 0.5% Trition X-100) supplemented with 1% Halt inhibitors (Thermo Scientific™, 78443) for 10 minutes. Cell lysate was centrifuged at 3000 rpm for 3 min at 4° C. The supernatant containing cytosolic proteins was transferred to a different tube. The pellet containing nuclear proteins was dissolved with nuclear lysis buffer (10 mM Hepes pH 7.9, 0.5M NaCl, 0.1 mM EDTA, 0.1 mM EGTA and 0.1% NP40) supplemented with 1% Halt inhibitors (Thermo Scientific™, 78443) for 5 minutes at 4° C. Then the solution was sonicated at 4° C. for 6 cycles (1 cycle=30 s sonication and 30 s cooldown with “High” energy intensity) using a Bioruptor® Plus sonication (Diagenode, UCD-300). After sonication, the solution was centrifuged at 15,000 rpm for 10 minutes. The supernatant was kept as nuclear extraction. Protein concentration was determined by BCA assay (Thermo Scientific, 23227). 5 μg nuclear proteins or 7.5 μg cytosolic proteins were boiled in loading buffer with reducing reagents (Invitrogen, NuPAGE™ LDS Sample Buffer (4X), NP0007), then separated with SDS-PAGE (Nupage™ 4-12% Bis-Tris Protein Gels, 1.0 mm, Invitrogen™, NP0322BOX). Protein was transferred onto a nitrocellulose membrane (Thermo Scientific™, 88018). After blocking in 5% non-fat milk for 30 minutes at room temperature (RT), the primary antibody was added for incubation overnight at 4° C. After washing with TBST (CST, #9997, 1:10 diluted by deionized water) for 3 times, HRP-conjugated secondary antibodies were applied. Signals were detected with an ECL kit (Thermo Scientific™, 34577) by using BioRad Universal Hood II.

SK-N-BE(2) cells [1] = test: Western blot of β-catenin and p53; conditions: 1 μM NEN 24 and 48 hrs
Protocol: as §1

N-Myc = N-Myc mRNA and protein levels (qPCR, western blot); conditions: SK-N-BE(2) cells, 1 μM NEN
Protocol: Protein extraction and immunoblot. Cells were washed with ice-cold PBS buffer (Invitrogen, 20012050) and lysed with harvest buffer (10 mM Hepes pH 7.9, 50 mM NaCl, 500 mM sucrose, 0.1 mM EDTA and 0.5% Trition X-100) supplemented with 1% Halt inhibitors (Thermo Scientific™, 78443) for 10 minutes. Cell lysate was centrifuged at 3000 rpm for 3 min at 4° C. The supernatant containing cytosolic proteins was transferred to a different tube. The pellet containing nuclear proteins was dissolved with nuclear lysis buffer (10 mM Hepes pH 7.9, 0.5M NaCl, 0.1 mM EDTA, 0.1 mM EGTA and 0.1% NP40) supplemented with 1% Halt inhibitors (Thermo Scientific™, 78443) for 5 minutes at 4° C. Then the solution was sonicated at 4° C. for 6 cycles (1 cycle=30 s sonication and 30 s cooldown with “High” energy intensity) using a Bioruptor® Plus sonication (Diagenode, UCD-300). After sonication, the solution was centrifuged at 15,000 rpm for 10 minutes. The supernatant was kept as nuclear extraction. Protein concentration was determined by BCA assay (Thermo Scientific, 23227). […] Signals were detected with an ECL kit (Thermo Scientific™, 34577) by using BioRad Universal Hood II. […] Quantitative PCR amplification was performed on the Prism 7900 Sequence Detection System (Applied Biosystems) using Taqman Gene Expression Assays (Applied Biosystems). […]

SK-N-BE(2) cells [2] = test: Methylated DNA Immunoprecipitation (MeDIP)-qRT-PCR; conditions: 1 μM NEN 5 h
Protocol: Methylated DNA Immunoprecipitation. 5×10^5 SK-N-BE(2) cells were plated in 60 mm dishes. […] After treatment, the cells were collected for DNA extraction as described above. 10 μg genomic DNA was sheared using a Bioruptor® Plus sonicator (Diagenode, UCD-300) to 550 bp fragments according to the instrument manual. Agarose electrophoresis was employed to examine the sizes of DNA fragments. The sonicated DNA samples were denatured at 95° C. for 15 minutes, then kept on ice immediately for at least 5 minutes. 200 ng denatured DNA was transferred to a new tube for input control and diluted with EDTA-free TE buffer to 100 μl total volume. For each pulldown reaction, transfer 600 ng of denatured DNA solution to new tubes and add EDTA-free TE buffer to 300 μl total volume. Add 2 μl antibody (5-mc or IgG control) and 20 μl prewashed Dynabeads™ Protein A (Invitrogen™, 10001 D) into the tubes and incubate the samples at 4° C. for 60 minutes with rotation. After incubation, place the tubes in magnetic rack for 30 s to allow the beads separate from solution. Remove the solution carefully without disturbing the beads. Wash the beads for 4 times by IP buffer (0.01% SDS, 1% Triton X-100, 2 mM EDTA, 20 mM Tris-HCl pH 8.1, 150 mM NaCl). DNA was eluted by resuspending the beads in 100 μl of digestion buffer (10 mM Tris pH 8.0, 1 mM EDTA, 1% SDS, 1 μg/μl proteinase K) and incubated for 6 hr at 65° C. […]

SK-N-BE(2) cells [3] = test: Western blot of RA signaling proteins; conditions: 24 hrs
Protocol: as §1

SK-N-BE(2) cells [4] = test: Proliferation after hypoxia pretreatment and replating; conditions: 1 μM NEN under hypoxia 4 days, replated under normoxia, counted after 5 days
Protocol: Cell proliferation and clonogenic assay. 2×10^4 cells were seeded in 12 well-plate and allowed to attached overnight. Then the cells were treated with various conditions as indicated for 48 h or 96 h (n=3). After treatment, cells were counted using hemocytometer.

In the case of `O=C(Nc1ccc([N+](=O)[O-])cc1Cl)c1cc(Cl)ccc1O` [NEN, 5-chloro-N-(2-chloro-4-nitrophenyl)-2-hydroxybenzamide compound with 2-aminoethanol (1:1)], the “expression of p53” value (NB16 cells) is reported as “increased”, the “expression of β-catenin (nuclear protein)” value (NB16 cells) is reported as “reduced” and the “expression of p53” value (SK-N-BE(2) cells [1]) is reported as “increased”. For the same compound, the “expression of β-catenin (nuclear protein)” value (SK-N-BE(2) cells [1]) was “reduced”, the “mRNA level of N-Myc” value (N-Myc) was “significantly reduced” and the “protein level of N-Myc” value (N-Myc) was “significantly reduced”. The “methylation on promoter region of genes in RAR signaling” value (SK-N-BE(2) cells [2]) was “reduced”, the “protein level of RARγ” value (SK-N-BE(2) cells [3]; 1 μM NEN alone) was “increased” and the “protein level of RARγ” value (SK-N-BE(2) cells [3]; 1 μM NEN combined with 1 μM RA) was “further upregulated”. For the same compound, the “gain of proliferation advantage from hypoxia pretreatment” value (SK-N-BE(2) cells [4]) was “blocked”.
